Measurements: patent US20170035713A1, “SYNERGISTIC COMBINATIONS OF CAROTENOIDS AND POLYPHENOLS” (LYCORED LTD., priority 2009, published 2017)

Legend:
Type in all cases: cell-based, mouse
[1] = test system: PGE2 production by peritoneal macrophages; assay: PGE2 measurement (radio-immunoassay) in LPS-stimulated peritoneal macrophages; conditions: for inhibition of PGE2 production (in words): FIG. 5a/5b lower panel, lutein 0.5 μM, beta-Carotene 1 μM, carnosic acid 1 μM; for inhibition of PGE2 production: used alone, FIG. 4 / FIG. 5a upper panel, same set of experiments as FIG. 2
Procedure: (§1) Macrophage isolation and cell culture—Peritoneal macrophages were collected from the peritoneal cavity of 6-8 week old male ICR mice (Harlan, Israel) that had been given an intraperitoneal injection of 1.5 ml of thioglycollate broth (4%) 4 days before harvest. Peritoneal macrophages were washed three times with PBS and, if needed, a hypotonic lysis of erythrocytes was performed, yielding 90-95% purity. The macrophages were identified by FACS analysis using FITC-conjugated rat anti-mouse F4/80 (MCA497F) (Serotec, Oxford, England) by flow microfluorimetry on FACS (Becton Dickinson, Mountain View, Calif.). For each sample, 10,000 light scatter-gated viable cells were analyzed. Peritoneal macrophages and murine macrophage cell line RAW264.7 were cultured RPMI 1640 medium containing 10% FCS, 2 mM L-glutamine; 100 U/ml penicillin; 100 μg/ml streptomycin (Beit-Haemek, Israel) in 96-well plates (1×10^6 cells/well) at 37° C. in 5% CO2 atmosphere. Cells were stimulated with LPS (0.1-1 μg/ml) in the presence or absence of carnosic acid and/or one or more of the following carotenoids: carnosic acid, purified lycopene, lycopene-rich tomato extract (Lyc-O-Mato®; LycoRed Ltd., Be'er Sheva, Israel), lutein and beta-Carotene.
(§2) The carnosic acid and the various carotenoids were dissolved in DMSO (to a final concentration of 5 mM). The mixture was vortexed and incubated in a water bath at 37° C. (with shaking) for 10 min and then sonicated in a sonicator bath three times for 15 seconds each time. Using this stock solution the desired concentrations were prepared by the addition of appropriate volumes thereof to warm culture medium.
(§3) Appropriate volumes of DMSO (0.1-0.2%) were added to the controls and the percent inhibition in each test tube was calculated in relation to its control.
PGE2 measurement—Supernatants of resting and stimulated cells were collected and immediately stored at −70° C. PGE2 levels were determined by utilizing a dextran coated charcoal radio-immunoassay protocol as previously described (Dror N, Tveria L, Meniv I, Ben-Shmuel S, Filipovich T, Fleisher-Berkovich S., Regul Pept. 2008 150: 21-5).
Briefly, 100 μl sample or PGE2 standard (Sigma Israel, Rehovot, Israel) were incubated in the presence of 500 μl anti-PGE2 anti-serum (Sigma Israel, Rehovot, Israel) for 30 min. [^3H]PGE2 (Amersham Biosciences, NJ, USA) was added next for 24 h at 4° C. 24 h later, 200 […]μl cold dextran coated charcoal suspension was added to each tube and incubated for 10 min on ice. The tubes were centrifuged at 3500 RPM for 15 min at 4° C. 500 μl of supernatants containing [^3H]PGE2-anti-PGE2 complexes were counted (Packard Spectrometry 1900CA) and the amount of PGE2 was calculated.

[2] = test system: macrophage superoxide production; assay: Superoxide production by macrophages (ferricytochrome c reduction); conditions: optimal low concentrations
Procedure: Peritoneal macrophages were isolated and treated as described hereinabove in Example 1.
Superoxide production: The production of superoxide anion (O2^−) by macrophages was measured as the superoxide dismutase-inhibitable reduction of ferricytochrome c by the microtiter plate technique, as known in the prior art. An aliquot of radiolabelled macrophages (5× 10^5 cells/well) used for the adherence assay was taken and suspended in 100 μl incubation medium containing ferricytochrome c ([…]). Stimulation was induced with PMA (50 ng/ml). The reduction of ferricytochrome c was followed by a change of absorbance at 550 nm at 2 min intervals for 30 min on a Thermomax Microplate Reader (Molecular Devices, Melno Park, Calif., USA). The maximal rates of superoxide generation were determined and expressed as nanomoles O2^−/10^6 cells/10 min using the extinction coefficient E550=21 mM^−1 cm^−1.

[3] = test system: NO production by peritoneal macrophages; assay: NO production assay in LPS-stimulated peritoneal macrophages (Example 1)
Procedure: as §1, §2, §3
NO production assay—NO levels in supernatants of cell cultures were determined by assaying nitrite levels using Griess reagent and sodium nitrite as a standard as described in Green, L. C., Wagner, D. A., Glogowski, J., Skipper, P. L., Wishnok, J. S., and Tannenbaum, S. R. (1982) Anal Biochem. 126: 131-138.

[4] = test system: LPS stimulated NO production by macrophages; assay: NO production assay in LPS-stimulated peritoneal macrophages, curcumin, lutein and Lycomato (second Example 1)
Procedure: Macrophage isolation and cell culture—Peritoneal macrophages were collected from the peritoneal cavity of 6-8 week old male ICR mice (Harlan, Israel) that had been given an intraperitoneal injection of 1.5 ml of thioglycollate broth (4%) 4 days before harvest. Peritoneal macrophages were washed three times with PBS and, if needed, a hypotonic lysis of erythrocytes was performed, yielding 90-95% purity. The macrophages were identified by FACS analysis using FITC-conjugated rat anti-mouse F4/80 (MCA497F) (Serotec, Oxford, England) by flow microfluorimetry on FACS (Becton Dickinson, Mountain View, Calif.). For each sample, 10,000 light scatter-gated viable cells were analyzed. Peritoneal macrophages were cultured in RPMI 1640 medium containing 10% FCS, 2 mM L-glutamine; 100 U/ml penicillin; 100 μg/ml streptomycin (Beit-Haemek, Israel) in 96-well plates (2×10^5 cells/well) at 37° C. in 5% CO2 atmosphere. LycoMato, Lutein and curcumin-PC (Indena product) and, for comparison, LycoMato, Lutein and pure curcumin and their various combinations were added to the cells. One hour later, LPS (0.2 μg/ml) was added and the macrophages were cultured at 37° C. in a 5% CO2 atmosphere for 24 h.
Curcumin PC (Indena) was dissolved in Diethylene glycol monoethyl ether from Sigma (as recommended by Indena). The volume of solvent was 0.12% for 1 µM curcumin PC. The concentration of curcumin PC was calculated according to its content in the formula (Curcumin PC). Lycomato and Lutein or curcumin were dissolved in DMSO (the volume of DMSO in the test solution was 0.01% for either 1 […] Lycomato, Lutein or pure curcumin. The mixture was vortexed and shaken at 37° C. for 10 min and sonicated in a sonicator bath for 15 sec×3 times. From this stock solution the desired concentrations were made by addition of appropriate volumes to warm culture medium. The concentration of lycopene in solution was calculated to 1 ml of the highest final concentration 0.5 ml isopropanol+1.5 ml hexane/dichloromethane (1:5 V/V) containing 0.025% BHT. The solution is vortexed and the phases are separated by centrifugation 3000 rpm for 10 min. A spectrum was done to detect the level of nutrients.
To the controls appropriate volumes of DMSO and/or Diethylene glycol monoethyl ether were added and the percent inhibition of each test tube was calculated in relation to its control tube.
NO production assay—NO levels in supernatants of cell cultures were determined by assaying nitrite levels using Griess reagent and sodium nitrite as a standard.

[5] = test system: TNF-alpha production by peritoneal macrophages; assay: TNF-alpha production assay (ELISA) in LPS-stimulated peritoneal macrophages; conditions: FIG. 3; same set of experiments and concentrations as FIG. 2
Procedure: as §1, with “Cells were stimulated with LPS (0.1-1 μg/ml) in the presence or absence of carnosic acid and/or one or more of the following carotenoids: carnosic acid, purified lycopene, lycopene-rich tomato extract (Lyc-O-Mato®; LycoRed Ltd., Be'er Sheva, Israel), lutein and beta-Carotene.” left out
as §3
TNF-alpha production assay—Concentrations of TNF-alpha were quantified using ELISA kits (Biolegend Inc., San Diego, Calif.).

[6] = Mus musculus, Peritoneal macrophage, read-out: inhibition of NO production

For CC1=C(/C=C/C(C)=C/C=C/C(C)=C/C=C/C=C(C)/C=C/C=C(C)/C=C/C2=C(C)CCCC2(C)C)C(C)(C)CCC1 [beta-carotene], the “inhibition of PGE2 production (in words)” value [1] was “neither lutein (0.5 μM) nor beta-Carotene (1 μM) alone affected PGE2 production”, the “inhibition of PGE2 production” value [1] was “around 20%” and the inhibition at 2 µM ([2]; Mus musculus, Macrophage, alone, beta-carotene 2 μM) was 10%.
With CC(C)c1cc2c(c(O)c1O)[C@@]1(C(=O)O)CCCC(C)(C)[C@@H]1CC2 [carnosic acid] the inhibition at 1 µM [3, 6] was 12%, the inhibition at 2 µM [3, 6] was 18% and the inhibition at 1 µM ([1]; Mus musculus, Peritoneal macrophage, read-out: inhibition of PGE2 production) was 10%. For the same compound, the “inhibition of PGE2 production” value [1] was “around 20%”.
With CC1=C[C@H](O)CC(C)(C)[C@H]1/C=C/C(C)=C/C=C/C(C)=C/C=C/C=C(C)/C=C/C=C(C)/C=C/C1=C(C)C[C@@H](O)CC1(C)C [lutein] the “inhibition of PGE2 production (in words)” value [1] was “neither lutein (0.5 μM) nor beta-Carotene (1 μM) alone affected PGE2 production” and the inhibition at 1 µM ([4]; Mus musculus, Macrophage, 2 μM Curcumin-PC or pure Curcumin, 1 μM Lycomato, 1 μM Lutein, alone or combined, LPS 0.2 μg/ml, 24 h) was 5 ± 0.9%.
In the case of CC(C)=CCC/C(C)=C/C=C/C(C)=C/C=C/C(C)=C/C=C/C=C(C)/C=C/C=C(C)/C=C/C=C(\C)CCC=C(C)C [lycopene], the “inhibition of NO production (in words)” value ([3]; alone, range of 1-5 μM) is reported as “low level inhibition”, the “inhibition of TNF-alpha production (in words)” value [5] is reported as “lack of detectable inhibition” and the “inhibition of superoxide production (in words)” value ([2]; FIG. 9) is reported as “lack of detectable inhibition”.
For COc1cc(/C=C/C(=O)CC(=O)/C=C/c2ccc(O)c(OC)c2)ccc1O [pure curcumin, curcumin], the “inhibition of LPS stimulated NO production” value ([4]; 2 μM Curcumin-PC or pure Curcumin, 1 μM Lycomato, 1 μM Lutein, alone or combined, LPS 0.2 μg/ml, 24 h) was 2±0.4%, the inhibition at 15 µM ([4]; Mus musculus, Macrophage, dose response 0-20 μM, at 15 μM) was 75% and the “inhibition of NO production (in words)” value ([4]; alone, 1 μM and 2 μM) was “non-significant inhibitory effect”.
